Data reported in US4840949A, “Oxadiazole-alkyl-purine derivatives useful as antitussive agents” (Chinoin Gyogyszer Es Vegyeszeti Termekek Gyara Rt., priority 1986, dated 1989).
Where a name gives a salt, the structure may show the parent alone.

Experiments:
[1] = Coughing caused by mechanical stimulation of the trachea bifurcatio on rabbits narcotised by nembutal, i.v. administration; type: in vivo, rabbit
[2] = Alleviation of coughing caused by 15% citric acid spray on guinea pig, oral administration; type: in vivo; details: for ED50: Cavia porcellus, po; for absolute strength of the antitussive effect, in words: Table I
Description: The aforesaid facts are supported by Table I wherein the ID50 mg/kg values of 3,7-dihydro-3-methyl-7-[(5-methyl-1,2,4-oxadiazole-3-yl)-methyl]-1H-purine-2,6-dione (the most simple representative of the compounds of the Formula I); two known 1,2,4-oxadiazole-type antitussive agents, codeine and dextromethorphane (morphine type reference compounds) in the alleviation of coughing caused by a 15% citric acid spray are disclosed. […] As test animal guinea pigs are used. (Method: Arzneimittel Forschung 1966, 617-621). Test compound No. 5 is 2-(3-methyl-xanthine-7-yl)-acetamidoxime (a starting material of the Formula II).
Alleviation of coughing caused by 15% citric acid spray on
guinea pig, the test compounds are administered orally
Antitussive effect of p.o. administered 3,7-dihydro-3-methyl-7-
[(5-methyl-1,2,4-oxadiazole-3-yl)-methyl]-lH--purine-2,6-dione
on coughing induced by 15% citric acid spray on guinea pig

in vivo = details: rat, ip
[3] = 1 hour pre-treatment, 15% citric acid spray, read-out: Antitussive effect, measured 1 hour after oral administration ID50

For `Cc1nc(Cn2cnc3c2c(=O)[nH]c(=O)n3C)no1` [Compound 1, 3,7-dihydro-3-methyl-7-[(5-methyl-1,2,4-oxadiazole-3-yl)-methyl]-1H-purine-2,6-dione], the ED50 ([1]; Oryctolagus cuniculus, iv, 2 min, rabbit, i.v., 2 minutes after administration, calculated according to Lichfield-Wilcoxon) was 2.24 mg/kg, the “decrease of coughing caused by mechanical stimulation” value ([1]; rabbit, 0.5-8.0 mg/kg i.v.) was “decreases in dose-dependant manner” and the “therapeutical index relative to reference compounds Nos. 4 and 6” value ([1]; taking into consideration the I.O. toxicity data) was “ten times more favorable”. The ED50 [2, 3] was 8.5 mg/kg, the ED50 ([2]; pre-treatment time 2.0 h, read-out: ID50, pre-treatment time 2.0 h) was 14.4 mg/kg and the ED50 ([2]; pre-treatment time 4.0 h, read-out: ID50, pre-treatment time 4.0 h) was 13.8 mg/kg. For the same molecule, the ED50 ([2]; pre-treatment time 8.0 h, read-out: ID50, pre-treatment time 8.0 h) was 32.6 mg/kg, the ED50 ([2]; read-out: ID50, pre-treatment time 0.5 h, p.o., pre-treatment time 0.5 h) was 7.5 mg/kg and the “absolute strength of the antitussive effect, in words” value ([2]; p.o.) was “significantly higher than that of reference compounds Nos. 2-4 and 6”. The “duration of oral antitussive effect” value ([2]; p.o., Table I/A) was “very long-lasting” and the LD50 (in vivo) was 700 mg/kg.

`Cc1nc(Cn2cnc3c2c(=O)n(C)c(=O)n3C)no1` [Compound 2, 3,7-dihydro-1,3-dimethyl-7-[(5-methyl-1,2,4-oxadiazole-3-yl)-methyl]-1H--purine-2,6-dione, reference compound] gave an ED50 [2, 3] of 111 mg/kg.

For `COc1ccc2c3c1O[C@H]1[C@@H](O)C=C[C@H]4[C@@H](C2)N(C)CC[C@@]341` [Compound 4, Codeine.HCl, reference compound], the “antitussive effect relative to compound No. 1” value ([1]; rabbit, i.v.) was “the same or a somewhat lower antitussive effect” and the LD50 (in vivo) was 72.4 mg/kg.

For `Cn1c(=O)[nH]c(=O)c2c1ncn2CC(N)=NO` [Compound 5, 2-(3-methyl-xanthine-7-yl)-acetamidoxime, reference compound], the “Antitussive effect at 50 mg/kg” value ([2]; 50 mg/kg p.o., 1 hour after administration) was “inactive” and the “absolute strength of the antitussive effect, in words” value ([2]; p.o.) was “practically negligible”.

For `COc1ccc2c(c1)[C@]13CCCC[C@@H]1[C@H](C2)N(C)CC3` [Compound 6, Dextromethorphan, reference compound], the “antitussive effect relative to compound No. 1” value ([1]; rabbit, i.v.) was “the same or a somewhat lower antitussive effect”.
